In patent US20220096609A1 (priority 2019, published 2022):
Entries after “also recorded” stand apart in the source; their conditions may differ.

Tests used:
[1] = tested on: mouse phrenic nerve hemidiaphragm; design: species or system CD-1 mice
[2] = tested on: mouse phrenic nerve hemi-diaphragm; design: species or system CD-1 mice

| SMILES | faster BoNT/A onset (time required for 50% paralysis) [1] | increase of (initial) amplitude of muscle tension [1] | onset of paralysis compared with 30 pM BoNT/A in the absence of 4-AP [1] | higher concentration of toxin required to induce an equivalent reduction in time for 90% paralysis as caused by DAP [2] | muscle denervation compared with BoNT/E alone [2] | muscle tension response / neurotransmission [2] | onset of neuroparalysis [2] | reduction of the therapeutically effective amount of BoNT/E compared with BoNT/E administered alone [2] | time taken for 50% paralysis (TTP50) [2] | time taken for 90% paralysis (TTP90) [2] | uptake of BoNT/E [2] |
| --- | --- | --- | --- | --- | --- | --- | --- | --- | --- | --- | --- |
| Nc1ccncc1 [4-AP, 4-aminopyridine] | approximately 25% | approximately 2.5 fold | progressed faster; also recorded: increased the onset of paralysis |  |  |  |  |  |  |  |  |
| Nc1ccncc1N [DAP, 3,4-diaminopyridine] |  |  |  | 6 times | faster muscle denervation | elevated muscle tension response; also recorded: enhanced neurotransmission | faster onset of neuroparalysis | 25-600% | faster time | faster time | increased uptake |
